Measurements from patent US9695155B2, “Herbicidal substituted pyrimidinyloxy benzene compounds” (E. I. DU PONT DE NEMOURS AND COMPANY, priority 2013, dated 2017).

Key:
[1] = tested on: Brazilian crabgrass; assay: Test E preemergence; assay type: in vivo, Digitaria horizontalis; conditions: for Crabgrass, Brazil plant response rating: scale 0 to 100 (0 no effect, 100 complete control); for Plant response rating, Crabgrass, Brazil: scale 0 to 100, 0 no effect, 100 complete control
In short: (§1)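 Test chemicals formulated in a non-phytotoxic solvent mixture containing a surfactant were applied preemergence to seeds in silt loam soil or postemergence to plants at the 1- to 4-leaf stage in potting mix. After 14 to 21 days in a greenhouse, injury was visually rated against controls on a 0-100 scale (0 = no effect, 100 = complete control).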

[2] = tested on: ducksalad; assay: Test C flooded paddy test; assay type: in vivo, Heteranthera limosa; conditions: Flood, scale 0 to 100 (0 no effect, 100 complete control), 13 to 15 days
In short: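 In-water treatment: compound dosed into 3 cm flood over soil, water level unchanged throughout. Controls run alongside; visual assessment at day 13–15.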

[3] = tested on: kochia; assay: Test E preemergence; assay type: in vivo, Kochia scoparia; conditions: for Kochia plant response rating: scale 0 to 100 (0 no effect, 100 complete control); for Plant response rating, Kochia: scale 0 to 100, 0 no effect, 100 complete control
In short: as §1

[4] = tested on: palmer pigweed; assay: Test E preemergence; assay type: in vivo, Amaranthus palmeri; conditions: for Pigweed, Palmer plant response rating: scale 0 to 100 (0 no effect, 100 complete control); for Plant response rating, Pigweed, Palmer: scale 0 to 100, 0 no effect, 100 complete control
In short: as §1

[5] = tested on: barnyardgrass; assay: Test E postemergence; assay type: in vivo, Echinochloa crus-galli; conditions: Echinochloa crus-galli, post-emergence, read-out: Plant response rating, Barnyardgrass
Source text: Seeds of plant species selected from corn (Zea mays), soybean (Glycine max), velvetleaf (Abutilon theophrasti), lambsquarters (Chenopodium album), wild poinsettia (Euphorbia heterophylla), palmer pigweed (Amaranthus palmeri), waterhemp (common waterhemp, Amaranthus rudis), surinam grass (Brachiaria decumbens), large (Lg) crabgrass (Digitaria sanguinalis), Brazilian crabgrass (Digitaria horizontalis), fall panicum (Panicum dichotomiflorum), giant foxtail (Setaria faberii), green foxtail (Setaria viridis), goosegrass (Eleusine indica), johnsongrass (Sorghum halepense), ragweed (common ragweed, Ambrosia elatior), barnyardgrass (Echinochloa crus-galli), sandbur (southern sandbur, Cenchrus echinatus), arrowleaf sida (Sida rhombifolia), Italian ryegrass (Lolium multiflorum), dayflower (Virginia (VA) dayflower, Commelina virginica), field bindweed (Convolvulus arvensis), morningglory (Ipomoea coccinea), nightshade (eastern black nightshade, Solanum ptycanthum), kochia (Kochia scoparia), yellow nutsedge (Cyperus esculentus), cocklebur (common cocklebur, Xanthium strumarium), smartweed (ladysthumb smartweed, and hairy beggarticks (Bidens pilosa), were planted into a silt loam soil and treated preemergence with test chemicals formulated in a non-phytotoxic solvent mixture which included a surfactant.
At the same time, plants from these crop and weed species and also horseweed (Canada horseweed, Conyza canadensis), waterhemp_RES1, (ALS & Triazine resistant common waterhemp, Amaranthus rudis), and waterhemp_RES2, (ALS & HPPD resistant common waterhemp, Amaranthus rudis) were planted in pots containing Redi-Earth® planting medium (Scotts Company, 14111 Scottslawn Road, Marysville, Ohio 43041) comprising spaghnum peat moss, vermiculite, wetting agent and starter nutrients were treated with postemergence applications of test chemicals formulated in the same manner. Plants ranged in height from 2 to 18 cm for postemergence treatments (1- to 4-leaf stage). Treated plants and controls were maintained in a greenhouse for 14 to 21 days, after which time all species were compared to controls and visually evaluated. Plant response ratings, summarized in Table E, are based on a scale of 0 to 100 where 0 is no effect and 100 is complete control. A dash (-) response means no test result.

[6] = tested on: ragweed; assay: Test E preemergence; assay type: in vivo, Ambrosia elatior; conditions: for Ragweed plant response rating: scale 0 to 100 (0 no effect, 100 complete control); for Plant response rating, Ragweed: scale 0 to 100, 0 no effect, 100 complete control
In short: as §1

[7] = tested on: morningglory; assay: Test E preemergence; assay type: in vivo, Ipomoea coccinea; conditions: for Morningglory plant response rating: scale 0 to 100 (0 no effect, 100 complete control); for Plant response rating, Morningglory: scale 0 to 100, 0 no effect, 100 complete control
In short: as §1

[8] = tested on: johnsongrass; assay: Test E preemergence; assay type: in vivo, Sorghum halepense; conditions: for Johnsongrass plant response rating: scale 0 to 100 (0 no effect, 100 complete control); for Plant response rating, Johnsongrass: scale 0 to 100, 0 no effect, 100 complete control
In short: as §1

## N#Cc1cccc(Oc2ncc(Br)cn2)c1-n1cc(C(F)(F)F)cn1 [Compound 59, 3-[(5-bromo-2-pyrimidinyl)oxy]-2-[4-(trifluoromethyl)-1H-pyrazol-1-yl]benzonitrile]
[1]; 16 g ai/ha
  Crabgrass, Brazil plant response rating: 80
[1]; 31 g ai/ha
  Crabgrass, Brazil plant response rating: 100
[1]; 62 g ai/ha
  Crabgrass, Brazil plant response rating: 100
[1]; 125 g ai/ha
  Plant response rating, Crabgrass, Brazil: 100
[1]; 250 g ai/ha
  Plant response rating, Crabgrass, Brazil: 100
[2]; 31 g ai/ha
  Plant response rating, Ducksalad: 50
[2]; 62 g ai/ha
  Plant response rating, Ducksalad: 75
[2]; 125 g ai/ha
  Plant response rating, Ducksalad: 95
[2]; 250 g ai/ha
  Plant response rating, Ducksalad: 95
[3]; 16 g ai/ha
  Kochia plant response rating: 20
[3]; 31 g ai/ha
  Kochia plant response rating: 80
[3]; 62 g ai/ha
  Kochia plant response rating: 100
[3]; 125 g ai/ha
  Plant response rating, Kochia: 100
[3]; 250 g ai/ha
  Plant response rating, Kochia: 100
[4]; 16 g ai/ha
  Pigweed, Palmer plant response rating: 35
[4]; 31 g ai/ha
  Pigweed, Palmer plant response rating: 100
[4]; 62 g ai/ha
  Pigweed, Palmer plant response rating: 100
[4]; 125 g ai/ha
  Plant response rating, Pigweed, Palmer: 100
[4]; 250 g ai/ha
  Plant response rating, Pigweed, Palmer: 100
[5]; Postemergence, 31 g ai/ha, scale 0 to 100
  pest or weed control at 31 g/ha: 0%
[5]; Postemergence, 62 g ai/ha, scale 0 to 100
  pest or weed control at 62 g/ha: 10%
[5]; Postemergence, 125 g ai/ha, scale 0 to 100
  pest or weed control at 125 g/ha: 15%
[5]; Postemergence, 250 g ai/ha, scale 0 to 100
  pest or weed control at 250 g/ha: 30%
[5]; postemergence, 16 g ai/ha, scale 0 to 100, 0 no effect, 100 complete control
  pest or weed control at 16 g/ha: 0%
[6]; 16 g ai/ha
  Ragweed plant response rating: 0
[6]; 31 g ai/ha
  Ragweed plant response rating: 0
[6]; 62 g ai/ha
  Ragweed plant response rating: 0
[6]; 125 g ai/ha
  Plant response rating, Ragweed: 5
[6]; 250 g ai/ha
  Plant response rating, Ragweed: 50
[7]; 16 g ai/ha
  Morningglory plant response rating: 0
[7]; 31 g ai/ha
  Morningglory plant response rating: 15
[7]; 62 g ai/ha
  Morningglory plant response rating: 65
[7]; 125 g ai/ha
  Plant response rating, Morningglory: 75
[7]; 250 g ai/ha
  Plant response rating, Morningglory: 100
[8]; 16 g ai/ha
  Johnsongrass plant response rating: 0
[8]; 31 g ai/ha
  Johnsongrass plant response rating: 0
[8]; 62 g ai/ha
  Johnsongrass plant response rating: 60
[8]; 125 g ai/ha
  Plant response rating, Johnsongrass: 75
[8]; 250 g ai/ha
  Plant response rating, Johnsongrass: 100
